According to patent publication US12110295B2, “WD40 repeat domain protein 5 (WDR5) degradation/disruption compounds and methods of use” (Icahn School of Medicine at Mount Sinai, priority 2018, dated 2024):

target: WDR5 (Homo sapiens, UniProt P61964); assay: Screening of putative WDR5 degraders by Western blot in MV4;11 and/or MIAPACA2 cells; assay type: cell-based; design: After WDR5 degrader treatment, cells were collected and lysed; endogenous in cells; host or cells: MV4;11 and/or MIAPACA2; conditions: summary of screening, FIGS. 6-10
Procedure: MV4;11 cells were treated with DMSO or indicated compounds at 0.1 μM and 0.5 μM for 18 hours. […]. MIAPACA2 cells were treated with DMSO or indicated compounds at 0.5 μM and 1.0 μM for 18 hours.
MIAPACA2 cells were treated with DMSO or indicated compounds at 0.1 μM and 0.5 μM for 18 hours.
MIAPACA2 cells were treated with DMSO or indicated compounds at 0.5 μM and 1.0 μM or at 1.0 μM and 10 μM for 18 hours.
MV4;11 cells were treated with DMSO or indicated compounds at 0.1 μM and 1.0 μM for 18 hours.
WDR5 degraders were dissolved in DMSO and DMSO with no degraders was used as the control. 1×10^6 MV4;11 cells or 1×10^5 MIAPACA2 or 2×10^5 Hela cells were seeded in 2 mL medium for each well in […].
For prescreening of all the compounds, each test compound was added to the medium at indicated concentrations. After 18 h treatment, cells were collected.
After WDR5 degrader treatment, cells were collected and lysed. Total cell lysates were used for western blot. The following primary antibodies were used: WDR5 (Santa Cruz), vinculin (Cell Signaling Technology), tubulin (Cell Signaling Technology), GAPDH (Santa Cruz). Blots were imaged using fluorescence-labeled secondary antibodies on ChemiDoc™ Imaging Systems.

| SMILES | effective degradation of WDR5 in MV4;11 and/or MIAPACA2 cells |
| --- | --- |
| Cc1ncsc1-c1ccc(CNC(=O)[C@@H]2C[C@@H](O)CN2C(=O)[C@@H](NC(=O)CCOCCOCCC(=O)N2CCN(Cc3cnc(N4CC=C(c5cc(NC(=O)c6c[nH]c(=O)cc6C(F)(F)F)c(N6C[C@@H](C)N(C)[C@@H](C)C6)cc5F)CC4)nc3)CC2)C(C)(C)C)cc1 [XF078-135, N-(4-fluoro-5-(1-(5-((4-(3-(2-(3-(((S)-1-((2S,4R)-4-hydroxy-2-((4-(4-methylthiazol-5-yl)benzyl)carbamoyl)pyrrolidin-1-yl)-3,3-dimethyl-1-oxobutan-2-yl)amino)-3-oxopropoxy)ethoxy)propanoyl)piperazin-1-yl)methyl)pyrimidin-2-yl)-1,2,3,6-tetrahydropyridin-4-yl)-2-((3S,5R)-3,4,5-trimethylpiperazin-1-yl)phenyl)-6-oxo-4-(trifluoromethyl)-1,6-dihydropyridine-3-carboxamide] | able to effectively degrade WDR5 |
| Cc1ncsc1-c1ccc(CNC(=O)[C@@H]2C[C@@H](O)CN2C(=O)[C@@H](NC(=O)CCCCCCCC(=O)N2CCN(c3ncc(-c4cc(NC(=O)c5ccc(F)cc5C(F)(F)F)c(N5C[C@@H](C)N(C)[C@@H](C)C5)cc4F)cn3)CC2)C(C)(C)C)cc1 [XF078-113, (2S,4R)-1-((S)-2-(9-(4-(5-(2-fluoro-5-(4-fluoro-2-(trifluoromethyl)benzamido)-4-((3S,5R)-3,4,5-trimethylpiperazin-1-yl)phenyl)pyrimidin-2-yl)piperazin-1-yl)-9-oxononanamido)-3,3-dimethylbutanoyl)-4-hydroxy-N-(4-(4-methylthiazol-5-yl)benzyl)pyrrolidine-2-carboxamide] | able to effectively degrade WDR5 |
| Cc1ncsc1-c1ccc(CNC(=O)[C@@H]2C[C@@H](O)CN2C(=O)[C@@H](NC(=O)COCCOCCOCCOCCOCC(=O)NCCN2CCN(Cc3ccc(F)c(-c4ccc(N5C[C@@H](C)N(C)[C@@H](C)C5)c(NC(=O)c5c[nH]c(=O)cc5C(F)(F)F)c4)c3)CC2)C(C)(C)C)cc1 [XF078-8, N^1-(2-(4-((6-fluoro-3′-(6-oxo-4-(trifluoromethyl)-1,6-dihydropyridine-3-carboxamido)-4′-((3S,5R)-3,4,5-trimethylpiperazin-1-yl)-[1,1′-biphenyl]-3-yl)methyl)piperazin-1-yl)ethyl)-N^17-((S)-1-((2S,4R)-4-hydroxy-2-((4-(4-methylthiazol-5-yl)benzyl)carbamoyl)pyrrolidin-1-yl)-3,3-dimethyl-1-oxobutan-2-yl)-3,6,9,12,15-pentaoxaheptadecanediamide] | able to effectively degrade WDR5 |
| C[C@@H]1CN(c2ccc(-c3cc(CN4CCN(CCNC(=O)CCCCCCCNc5cccc6c5C(=O)N(C5CCC(=O)NC5=O)C6=O)CC4)ccc3F)cc2NC(=O)c2c[nH]c(=O)cc2C(F)(F)F)C[C@H](C)N1C (stereo partly drawn) [XF078-24, N-(5′-((4-(2-(8-((2-(2,6-dioxopiperidin-3-yl)-1,3-dioxoisoindolin-4-yl)amino)octanamido)ethyl)piperazin-1-yl)methyl)-2′-fluoro-4-((3S,5R)-3,4,5-trimethylpiperazin-1-yl)-[1,1′-biphenyl]-3-yl)-6-oxo-4-(trifluoromethyl)-1,6-dihydropyridine-3-carboxamide] | able to effectively degrade WDR5 |
| Cc1ncsc1-c1ccc(CNC(=O)[C@@H]2C[C@@H](O)CN2C(=O)[C@@H](NC(=O)CCCCCCCCCC(=O)N2CCN(c3ccc(-c4cc(NC(=O)c5c[nH]c(=O)cc5C(F)(F)F)c(N5C[C@@H](C)N(C)[C@@H](C)C5)cc4F)cn3)CC2)C(C)(C)C)cc1 [XF067-133, N-(4-fluoro-5-(6-(4-(11-(((S)-1-((2S,4R)-4-hydroxy-2-((4-(4-methylthiazol-5-yl)benzyl)carbamoyl)pyrrolidin-1-yl)-3,3-dimethyl-1-oxobutan-2-yl)amino)-11-oxoundecanoyl)piperazin-1-yl)pyridin-3-yl)-2-((3S,5R)-3,4,5-trimethylpiperazin-1-yl)phenyl)-6-oxo-4-(trifluoromethyl)-1,6-dihydropyridine-3-carboxamide] | able to effectively degrade WDR5 |
| C[C@@H]1CN(c2cc(F)c(C3=CCN(c4ncc(CN5CCN(C(=O)CCOCCOCCOCCOCCNc6cccc7c6C(=O)N(C6CCC(=O)NC6=O)C7=O)CC5)cn4)CC3)cc2NC(=O)c2c[nH]c(=O)cc2C(F)(F)F)C[C@H](C)N1C (stereo partly drawn) [XF078-159, N-(5-(1-(5-((4-(1-((2-(2,6-dioxopiperidin-3-yl)-1,3-dioxoisoindolin-4-yl)amino)-3,6,9,12-tetraoxapentadecan-15-oyl)piperazin-1-yl)methyl)pyrimidin-2-yl)-1,2,3,6-tetrahydropyridin-4-yl)-4-fluoro-2-((3S,5R)-3,4,5-trimethylpiperazin-1-yl)phenyl)-6-oxo-4-(trifluoromethyl)-1,6-dihydropyridine-3-carboxamide] | able to effectively degrade WDR5 |
| C[C@@H]1CN(c2cc(F)c(C3=CCN(c4ncc(CN5CCN(C(=O)CCNc6cccc7c6C(=O)N(C6CCC(=O)NC6=O)C7=O)CC5)cn4)CC3)cc2NC(=O)c2c[nH]c(=O)cc2C(F)(F)F)C[C@H](C)N1C (stereo partly drawn) [XF078-150, N-(5-(1-(5-((4-(3-((2-(2,6-dioxopiperidin-3-yl)-1,3-dioxoisoindolin-4-yl)amino)propanoyl)piperazin-1-yl)methyl)pyrimidin-2-yl)-1,2,3,6-tetrahydropyridin-4-yl)-4-fluoro-2-((3S,5R)-3,4,5-trimethylpiperazin-1-yl)phenyl)-6-oxo-4-(trifluoromethyl)-1,6-dihydropyridine-3-carboxamide] | able to effectively degrade WDR5 |
| Cc1ncsc1-c1ccc(CNC(=O)[C@@H]2C[C@@H](O)CN2C(=O)[C@@H](NC(=O)COCCOCC(=O)N2CCN(c3ncc(-c4cc(NC(=O)c5ccc(F)cc5C(F)(F)F)c(N5C[C@@H](C)N(C)[C@@H](C)C5)cc4F)cn3)CC2)C(C)(C)C)cc1 [XF078-101, (2S,4R)-1-((S)-2-(2-(2-(2-(4-(5-(2-fluoro-5-(4-fluoro-2-(trifluoromethyl)benzamido)-4-((3S,5R)-3,4,5-trimethylpiperazin-1-yl)phenyl)pyrimidin-2-yl)piperazin-1-yl)-2-oxoethoxy)ethoxy)acetamido)-3,3-dimethylbutanoyl)-4-hydroxy-N-(4-(4-methylthiazol-5-yl)benzyl)pyrrolidine-2-carboxamide] | able to effectively degrade WDR5 |
| Cc1ncsc1-c1ccc(CNC(=O)[C@@H]2C[C@@H](O)CN2C(=O)[C@@H](NC(=O)CCCCCCC(=O)NCCN2CCN(Cc3ccc(F)c(-c4ccc(N5C[C@@H](C)N(C)[C@@H](C)C5)c(NC(=O)c5c[nH]c(=O)cc5C(F)(F)F)c4)c3)CC2)C(C)(C)C)cc1 [XF078-14, N^1-(2-(4-((6-fluoro-3′-(6-oxo-4-(trifluoromethyl)-1,6-dihydropyridine-3-carboxamido)-4′-((3S,5R)-3,4,5-trimethylpiperazin-1-yl)-[1,1′-biphenyl]-3-yl)methyl)piperazin-1-yl)ethyl)-N^8-((S)-1-((2S,4R)-4-hydroxy-2-((4-(4-methylthiazol-5-yl)benzyl)carbamoyl)pyrrolidin-1-yl)-3,3-dimethyl-1-oxobutan-2-yl)octanediamide] | able to effectively degrade WDR5 |
| Cc1ncsc1-c1ccc(CNC(=O)[C@@H]2C[C@@H](O)CN2C(=O)[C@@H](NC(=O)CCCC(=O)N2CCN(Cc3cnc(N4CC=C(c5cc(NC(=O)c6c[nH]c(=O)cc6C(F)(F)F)c(N6C[C@@H](C)N(C)[C@@H](C)C6)cc5F)CC4)nc3)CC2)C(C)(C)C)cc1 [XF078-142, N-(4-fluoro-5-(1-(5-((4-(5-(((S)-1-((2S,4R)-4-hydroxy-2-((4-(4-methylthiazol-5-yl)benzyl)carbamoyl)pyrrolidin-1-yl)-3,3-dimethyl-1-oxobutan-2-yl)amino)-5-oxopentanoyl)piperazin-1-yl)methyl)pyrimidin-2-yl)-1,2,3,6-tetrahydropyridin-4-yl)-2-((3S,5R)-3,4,5-trimethylpiperazin-1-yl)phenyl)-6-oxo-4-(trifluoromethyl)-1,6-dihydropyridine-3-carboxamide] | able to effectively degrade WDR5 |
| C[C@@H]1CN(c2ccc(-c3cc(CN4CCN(CCNC(=O)CCCCNc5cccc6c5C(=O)N(C5CCC(=O)NC5=O)C6=O)CC4)ccc3F)cc2NC(=O)c2c[nH]c(=O)cc2C(F)(F)F)C[C@H](C)N1C (stereo partly drawn) [XF078-21, N-(5′-((4-(2-(5-((2-(2,6-dioxopiperidin-3-yl)-1,3-dioxoisoindolin-4-yl)amino)pentanamido)ethyl)piperazin-1-yl)methyl)-2′-fluoro-4-((3S,5R)-3,4,5-trimethylpiperazin-1-yl)-[1,1′-biphenyl]-3-yl)-6-oxo-4-(trifluoromethyl)-1,6-dihydropyridine-3-carboxamide] | able to effectively degrade WDR5 |
